Earlier results on two compounds are cited in patent EP1027077B1, “MAGNETIC RESONANCE IMAGING AGENTS FOR THE DELIVERY OF THERAPEUTIC AGENTS” (Research Corporation Technologies, Inc, priority 1997, dated 1999).

For the data set the following is noted: thermodynamic stability of the Gd(III) chelate; background statement.

On to `O=C([O-])CN1CCN(CC(=O)[O-])CCN(CC(=O)[O-])CCN(CC(=O)[O-])CC1.[Gd+3]` [Gd-DOTA], for which the “stability constant (K) / formation constant, logK” value is 28.5.

`O=C([O-])CN(CCN(CC(=O)[O-])CC(=O)[O-])CCN(CC(=O)[O-])CC(=O)[O-].[Gd+3]` [Gd(DTPA)^2-]: the “stability constant (K) / formation constant, logK” value was 22.4.
